The test system of test [1] is human megakaryocyte progenitors (CFU-Mk). Kind of test: Colony forming cell assay, human megakaryocyte progenitor (CFU-Mk) proliferation. Type of test: cell-based. Particulars: Homo sapiens; single agent; read-out: IC50, total CFU-Mk (megakaryocyte progenitor proliferation). On the procedure: (§1) In addition, 5-FU was evaluated at 1.0, 0.1 and 0.01 μg/mL as a positive control for toxicity.
(§2) Normal human bone marrow light density cells (lot #0210901), derived from normal bone marrow, (Lonza, Maryland) and qualified at ReachBio, were stored at −152° C. until required for the assay. On the day of the experiment, the cells were thawed rapidly, diluted in 10 mL of Iscove's modified Dulbecco's medium containing 10% fetal bovine serum (IMDM+10% FBS) and washed by centrifugation (approximately 1500 r.p.m. for 10 minutes at room temperature). The supernatant was discarded and the cell pellets were resuspended in a known volume of IMDM+10% FBS. A cell count (3% glacial acetic acid) and viability assessment (trypan blue exclusion test) was performed for the bone marrow sample.
(§3) Clonogenic progenitors of human megakaryocyte (CFU-Mk) were assessed in a collagen-based media formulation containing rhIL-3 (10 ng/mL), rhIL-6 (10 ng/mL), and Tpo (50 ng/mL). Clonogenic progenitors of the human erythroid (CFU-E and BFU-E), myeloid (CFU-GM), and megakaryocyte (CFU-Mk) lineages were set up in the media formulations described above. Individually, the test compounds were added to the medium to give the final desired concentrations (10, 3.33, 1, 0.333, 0.1, 0.0333, 0.01 and 0.00333 μM). […] Solvent control cultures (containing no compound but 0.1% DMSO) as well as standard controls (containing no compound and no DMSO) were also initiated. Once introduced into the matrices, the tubes were vortexed to ensure an equal distribution throughout.
(§4) Human myeloid and erythroid progenitor assays were initiated at 1.2×10^4 cells per culture (lot #0210921) and the human megakaryocyte assays were initiated at 1.2×10^5 cells per culture (lot #0210921). Following 14 days in culture, erythroid and myeloid colonies were assessed microscopically in situ and scored by trained personnel. The colonies were divided into the following categories based on size and morphology: CFU-E, BFU-E, CFU-GM, and CFU-GEMM. The human megakaryocyte cultures were transferred from the 35 mm dishes to labeled glass slides, fixed with methanol/acetone fixative, and then stained with anti-human CD41 antibody and an alkaline phosphate detection system according to manufacturers' instructions. The colonies were assessed microscopically and scored by trained personnel and divided into the following categories based on size: CFU-Mk (3-20), CFU-Mk (21-49), and CFU-Mk (≥50).
(§5) Statistical analysis: The mean±standard deviation of three replicate cultures was calculated for both erythroid and myeloid progenitors. Two-tailed standard t-tests were performed to assess if there was a difference in the number of colonies generated between solvent control and treated cultures. Due to the potential subjectivity of colony enumeration, a p value of less than 0.01 is deemed significant. To calculate the concentration of 50% inhibition of colony growth (IC50) for each compound, a dose response curve was generated plotting the log of the compound concentration versus the percentage of control colony growth using GraphPad Prism 9 software.
Other than the test compounds being combined, the only change from the method in Example 1 was a 0.2% DMSO solvent control instead of 0.1% DMSO. The results are provided in FIGS. 2A-4C (FIGS. 2A-2C are human megakaryocytes (CFU-MK), FIGS. 3A-3C are human erythroid (CFU-E, BFU-E), and FIGS. 4A-4C are human granulocyte-monocyte (CFU-GM).

The test system of test [2] is human myeloid progenitors (CFU-GM). Kind of test: Colony forming cell assay, human myeloid (granulocyte-monocyte, CFU-GM) progenitor proliferation. Particulars: single agent. The test is classed as cell-based. As for the experimental part:
Clonogenic progenitors of human erythroid (CFU-E, BFU-E), granulocyte-monocyte (CFU-GM), and multipotential (CFU-GEMM) lineages were assessed in a semi-solid methylcellulose-based media formulation containing rhIL-3 (10 ng/mL), rhGM-SCF (10 ng/mL), rhSCF (50 ng/mL), and Epo (3 U/mL).
as §1, §2, §3, §4, §5
Erythroid (CFU-E and BFU-E) and myeloid (CFU-GM) colony enumeration was performed by trained personnel. In addition, the distribution of colony types as well as general colony and cellular morphology was analyzed. The variance in colony number detected in replicate cultures was representative of the historical coefficient of variation for colony enumeration using these types of assays. The number and distribution of colonies detected in the solvent control (0.1% DMSO for single agents) was no different from the standard control (containing no compound and no DMSO). […]

Each structure is given as a SMILES string.

As for `CC(C)(O)[C@H]1CC[C@H](Nc2ccc3ncc(-c4cccc(C(F)(F)F)c4)n3n2)CC1` [Compound (1)], the IC50 in test [1] came to 1560 nM; in test [2] (Homo sapiens, 336 h, 14 days, CFU-GM), 1310 nM. The “concentrations at which myeloid progenitor proliferation was (significantly, additionally) inhibited” value in test [2] (vs 0.1% DMSO solvent control, p<0.01) stood at 1.0 µM.
